# Experimental data taken from patent EP0908457B1, “3-(1,2-benzisothiazol- and isoxazol-5-Y1)-2,4(1H,3H)-pyrimidinedione or thione and 3-(1,2-benzisothiazol- and isoxazol-5-y1)-4(3H)-pyrimidinone or thione herbicidal agents” (BASF AKTIENGESELLSCHAFT, priority 1997, dated 1999).
# Assays:
# [1] = test system: Oryza sativa, (L.) Tebonnet; assay: Rice tolerance to post-transplant applications under flooded paddy conditions (Example 187), ORYSAT (Rice, Tebonnet); conditions: for ORYSAT: herbicidal effect rating 0-9, three to four weeks after treatment; for herbicidal effect rating ORYSAT: meaning of each grade not given here
# [2] = test system: Sagittaria pygmaea, L.; assay: Preemergence weed control under flooded paddy conditions, SAGPY (Arrowhead (Pygmaea)); format: in vivo; conditions: flooded paddy; for SAGPY herbicidal effect rating / SAGPY herbicidal rating / herbicidal effect rating, SAGPY: preemergence; for SAGPY: preemergence weeds, herbicidal effect rating 0-9, three to four weeks after treatment
# [3] = test system: Cyperus iria; assay: Preemergence weed control under flooded paddy conditions, CYPIR (Rice Flatsedge); format: in vivo; conditions: flooded paddy; for CYPIR herbicidal effect rating / CYPIR herbicidal rating / herbicidal effect rating, CYPIR: preemergence; for CYPIR: preemergence weeds, herbicidal effect rating 0-9, three to four weeks after treatment
# [4] = test system: Monochoria vaginalis, Presl.; assay: Preemergence weed control under flooded paddy conditions, MOOVA (Monochoria); format: in vivo; conditions: flooded paddy; for MOOVA herbicidal effect rating / MOOVA herbicidal rating / herbicidal effect rating, MOOVA: preemergence; for MOOVA: preemergence weeds, herbicidal effect rating 0-9, three to four weeks after treatment
# [5] = test system: Echinochloa oryzoides (Ard.) Fritsch.; assay: Preemergence weed control under flooded paddy conditions, ECHORC (Watergrass (Calif.)); format: in vivo; conditions: flooded paddy; for ECHORC herbicidal effect rating / ECHORC herbicidal rating / herbicidal effect rating, ECHORC: preemergence; for ECHORC: preemergence weeds, herbicidal effect rating 0-9, three to four weeks after treatment
# [6] = test system: Cyperus serotinus, Rottb.; assay: Preemergence weed control under flooded paddy conditions, CYPSE (Flatsedge); format: in vivo; conditions: for CYPSE: preemergence weeds, herbicidal effect rating 0-9, three to four weeks after treatment
# [7] = Rate 0.0320 kg/ha, rated three to four weeks after treatment
# [8] = Rate 0.0620 kg/ha, rated three to four weeks after treatment
# [9] = Rate 0.1250 kg/ha, rated three to four weeks after treatment
# [10] = Rate 0.2500 kg/ha, rated three to four weeks after treatment
# [11] = Rate 0.5000 kg/ha, rated three to four weeks after treatment
# [12] = Rate 0.0320 kg/ha, preemergence, rated three to four weeks after treatment
# [13] = Rate 0.0620 kg/ha, preemergence, rated three to four weeks after treatment
# [14] = Rate 0.1250 kg/ha, preemergence, rated three to four weeks after treatment
# [15] = Rate 0.2500 kg/ha, preemergence, rated three to four weeks after treatment
# [16] = Rate 0.5000 kg/ha, preemergence, rated three to four weeks after treatment
# [17] = 0.0320 kg/ha, rated three to four weeks after treatment
# [18] = 0.0620 kg/ha, rated three to four weeks after treatment
# [19] = 0.1250 kg/ha, rated three to four weeks after treatment
# [20] = 0.2500 kg/ha, rated three to four weeks after treatment
# [21] = Rate 0.0320 kg/ha, rated 3-4 weeks after treatment
# [22] = Rate 0.0620 kg/ha, rated 3-4 weeks after treatment
# [23] = Rate 0.1250 kg/ha, rated 3-4 weeks after treatment
# [24] = Rate 0.2500 kg/ha, rated 3-4 weeks after treatment
# [25] = Rate 0.5000 kg/ha, rated 3-4 weeks after treatment
structure (smiles),measurement,setting,value
"Cn1c(C(F)(F)F)cc(=O)n(-c2ccc3snc(CS(=O)(=O)CC(=O)O)c3c2)c1=O [Example 282, Acetic acid, {{{5-[3,6-dihydro-3-methyl-2,6-dioxo-4-(trifluoromethyl)-1(2H)-pyrimidinyl]-1,2-benzisothiazol-3-yl}methyl}sulfonyl}-]",ORYSAT herbicidal effect rating,[1]; [7],2.0
same,ORYSAT herbicidal effect rating,[1]; [8],3.0
same,ORYSAT herbicidal effect rating,[1]; [9],4.0
same,ORYSAT herbicidal effect rating,[1]; [10],4.0
same,ORYSAT herbicidal effect rating,[1]; [11],0.0
same,SAGPY herbicidal effect rating,[2]; [7],0.0
same,SAGPY herbicidal effect rating,[2]; [8],0.0
same,SAGPY herbicidal effect rating,[2]; [9],0.0
same,SAGPY herbicidal effect rating,[2]; [10],0.0
same,SAGPY herbicidal effect rating,[2]; [11],0.0
same,CYPIR herbicidal effect rating,[3]; [7],4.0
same,CYPIR herbicidal effect rating,[3]; [8],8.0
same,CYPIR herbicidal effect rating,[3]; [9],8.0
same,CYPIR herbicidal effect rating,[3]; [10],8.0
same,CYPIR herbicidal effect rating,[3]; [11],9.0
same,MOOVA herbicidal effect rating,[4]; [7],6.0
same,MOOVA herbicidal effect rating,[4]; [8],9.0
same,MOOVA herbicidal effect rating,[4]; [9],9.0
same,MOOVA herbicidal effect rating,[4]; [10],9.0
same,MOOVA herbicidal effect rating,[4]; [11],9.0
same,ECHORC herbicidal effect rating,[5]; [7],0.0
same,ECHORC herbicidal effect rating,[5]; [8],0.0
same,ECHORC herbicidal effect rating,[5]; [9],1.9
same,ECHORC herbicidal effect rating,[5]; [10],0.0
same,ECHORC herbicidal effect rating,[5]; [11],0.0
same,CYPSE herbicidal effect rating,[6]; [12],0.0
same,CYPSE herbicidal effect rating,[6]; [13],0.0
same,CYPSE herbicidal effect rating,[6]; [14],0.0
same,CYPSE herbicidal effect rating,[6]; [15],0.0
same,CYPSE herbicidal effect rating,[6]; [16],0.0
"CC(C)NS(=O)(=O)NC(=O)c1nsc2ccc(-n3c(=O)cc(C(F)(F)F)n(C)c3=O)cc12 [Example 508, 1,2-Benzisothiazole-3-carboxamide, 5-[3,6-dihydro-3-methyl-2,6-dioxo-4-(trifluoromethyl)-1(2H)-pyrimidinyl]-N-(isopropylsulfamoyl)-]",ORYSAT herbicidal rating (rice tolerance),[1]; [17],0.0
same,ORYSAT herbicidal rating (rice tolerance),[1]; [18],2.0
same,ORYSAT herbicidal rating (rice tolerance),[1]; [19],5.0
same,ORYSAT herbicidal rating (rice tolerance),[1]; [20],6.0
same,SAGPY herbicidal rating,[2]; [17],5.0
same,SAGPY herbicidal rating,[2]; [18],6.0
same,SAGPY herbicidal rating,[2]; [19],9.0
same,SAGPY herbicidal rating,[2]; [20],9.0
same,CYPIR herbicidal rating,[3]; [17],6.0
same,CYPIR herbicidal rating,[3]; [18],7.0
same,CYPIR herbicidal rating,[3]; [19],7.0
same,CYPIR herbicidal rating,[3]; [20],9.0
same,MOOVA herbicidal rating,[4]; [17],9.0
same,MOOVA herbicidal rating,[4]; [18],9.0
same,MOOVA herbicidal rating,[4]; [19],9.0
same,MOOVA herbicidal rating,[4]; [20],9.0
same,ECHORC herbicidal rating,[5]; [17],2.0
same,ECHORC herbicidal rating,[5]; [18],5.0
same,ECHORC herbicidal rating,[5]; [19],6.0
same,ECHORC herbicidal rating,[5]; [20],9.0
same,CYPSE herbicidal rating,"[6]; 0.0320 kg/ha, preemergence, rated three to four weeks after treatment",0.0
"Cn1c(C(F)(F)F)cc(=O)n(-c2ccc3snc(C(=O)NS(=O)(=O)Cc4ccc(OC(F)(F)F)cc4)c3c2)c1=O [Example 406, 1,2-Benzisothiazole-3-carboxamide, 5-[3,6-dihydro-3-methyl-2,6-dioxo-4-(trifluoromethyl)-1(2H)-pyrimidinyl]-N-{[p-(trifluoromethoxy)-benzyl]sulfonyl}-]",ORYSAT,[1]; 0.0320 kg/ha,0.0
same,ORYSAT,[1]; 0.0620 kg/ha,0.0
same,ORYSAT,[1]; 0.1250 kg/ha,2.0
same,ORYSAT,[1]; 0.2500 kg/ha,4.0
same,SAGPY,[2]; 0.0320 kg/ha,3.0
same,SAGPY,[2]; 0.0620 kg/ha,4.0
same,SAGPY,[2]; 0.1250 kg/ha,4.0
same,SAGPY,[2]; 0.2500 kg/ha,4.0
same,CYPIR,[3]; 0.0320 kg/ha,0.0
same,CYPIR,[3]; 0.0620 kg/ha,4.0
same,CYPIR,[3]; 0.1250 kg/ha,4.0
same,CYPIR,[3]; 0.2500 kg/ha,7.0
same,MOOVA,[4]; 0.0320 kg/ha,4.0
same,MOOVA,[4]; 0.0620 kg/ha,7.0
same,MOOVA,[4]; 0.1250 kg/ha,9.0
same,MOOVA,[4]; 0.2500 kg/ha,9.0
same,ECHORC,[5]; 0.0320 kg/ha,6.0
same,ECHORC,[5]; 0.0620 kg/ha,6.0
same,ECHORC,[5]; 0.1250 kg/ha,7.0
same,ECHORC,[5]; 0.2500 kg/ha,7.0
same,CYPSE,[6]; 0.0320 kg/ha,0.0
same,CYPSE,[6]; 0.0620 kg/ha,0.0
same,CYPSE,[6]; 0.1250 kg/ha,3.0
same,CYPSE,[6]; 0.2500 kg/ha,6.0
"Cc1ccc(C(=O)C(C)Oc2ccccc2-c2nsc3ccc(-n4c(=O)cc(C(F)(F)F)n(C)c4=O)cc23)cc1C (stereo not drawn) [Example 550, 2,4(1H,3H)-Pyrimidinedione, 3-{-3-{o-[1-(3,4-dimethylbenzoyl)ethoxy]phenyl}-1,2-benzisothiazol-5-yl]-1-methyl-6-(trifluoromethyl)-]",herbicidal effect rating ORYSAT,[1]; [21],0.0
same,herbicidal effect rating ORYSAT,[1]; [22],0.0
same,herbicidal effect rating ORYSAT,[1]; [23],0.0
same,herbicidal effect rating ORYSAT,[1]; [24],0.0
same,herbicidal effect rating ORYSAT,[1]; [25],0.0
same,"herbicidal effect rating, SAGPY",[2]; [21],0.0
same,"herbicidal effect rating, SAGPY",[2]; [22],0.0
same,"herbicidal effect rating, SAGPY",[2]; [23],0.0
same,"herbicidal effect rating, SAGPY",[2]; [24],0.0
same,"herbicidal effect rating, SAGPY",[2]; [25],0.0
same,"herbicidal effect rating, CYPIR",[3]; [21],2.0
same,"herbicidal effect rating, CYPIR",[3]; [22],8.0
same,"herbicidal effect rating, CYPIR",[3]; [23],8.0
same,"herbicidal effect rating, CYPIR",[3]; [24],7.0
same,"herbicidal effect rating, CYPIR",[3]; [25],5.0
same,"herbicidal effect rating, MOOVA",[4]; [21],9.0
same,"herbicidal effect rating, MOOVA",[4]; [22],9.0
same,"herbicidal effect rating, MOOVA",[4]; [23],9.0
same,"herbicidal effect rating, MOOVA",[4]; [24],9.0
same,"herbicidal effect rating, MOOVA",[4]; [25],9.0
same,"herbicidal effect rating, ECHORC",[5]; [21],4.7
same,"herbicidal effect rating, ECHORC",[5]; [22],5.9
same,"herbicidal effect rating, ECHORC",[5]; [23],5.9
same,"herbicidal effect rating, ECHORC",[5]; [24],9.0
same,"herbicidal effect rating, ECHORC",[5]; [25],9.0
same,"herbicidal effect rating, CYPSE","[6]; Rate 0.0320 kg/ha, preemergence, rated 3-4 weeks after treatment",0.0
same,"herbicidal effect rating, CYPSE","[6]; Rate 0.0620 kg/ha, preemergence, rated 3-4 weeks after treatment",0.0
same,"herbicidal effect rating, CYPSE","[6]; Rate 0.1250 kg/ha, preemergence, rated 3-4 weeks after treatment",0.0
same,"herbicidal effect rating, CYPSE","[6]; Rate 0.2500 kg/ha, preemergence, rated 3-4 weeks after treatment",0.0
same,"herbicidal effect rating, CYPSE","[6]; Rate 0.5000 kg/ha, preemergence, rated 3-4 weeks after treatment",9.0
"Cn1c(C(F)(F)F)cc(=O)n(-c2ccc3snc(C(=O)NS(=O)(=O)c4cccs4)c3c2)c1=O [Example 391, 1,2-Benzisothiazole-3-carboxamide, 5-[3,6-dihydro-3-methyl-2,6-dioxo-4-(trifluoromethyl)-1(2H)-pyrimidinyl]-N-(2-thienylsulfonyl)-]",herbicidal effect rating ORYSAT,[1]; [7],2.0
same,herbicidal effect rating ORYSAT,[1]; [8],2.0
same,herbicidal effect rating ORYSAT,[1]; [9],3.0
same,herbicidal effect rating ORYSAT,[1]; [10],3.0
same,herbicidal effect rating ORYSAT,[1]; [11],3.0
same,"herbicidal effect rating, SAGPY",[2]; [7],6.0
same,"herbicidal effect rating, SAGPY",[2]; [8],6.0
same,"herbicidal effect rating, SAGPY",[2]; [9],7.0
same,"herbicidal effect rating, SAGPY",[2]; [10],7.0
same,"herbicidal effect rating, SAGPY",[2]; [11],9.0
same,"herbicidal effect rating, CYPIR",[3]; [7],3.0
same,"herbicidal effect rating, CYPIR",[3]; [8],3.0
same,"herbicidal effect rating, CYPIR",[3]; [9],4.0
same,"herbicidal effect rating, CYPIR",[3]; [10],6.0
same,"herbicidal effect rating, CYPIR",[3]; [11],9.0
same,"herbicidal effect rating, MOOVA",[4]; [7],6.0
same,"herbicidal effect rating, MOOVA",[4]; [8],9.0
same,"herbicidal effect rating, MOOVA",[4]; [9],9.0
same,"herbicidal effect rating, MOOVA",[4]; [10],9.0
same,"herbicidal effect rating, MOOVA",[4]; [11],9.0
same,"herbicidal effect rating, ECHORC",[5]; [7],0.0
same,"herbicidal effect rating, ECHORC",[5]; [8],0.0
same,"herbicidal effect rating, ECHORC",[5]; [9],2.0
same,"herbicidal effect rating, ECHORC",[5]; [10],4.0
same,"herbicidal effect rating, ECHORC",[5]; [11],6.0
same,"herbicidal effect rating, CYPSE",[6]; [12],0.0
same,"herbicidal effect rating, CYPSE",[6]; [13],0.0
same,"herbicidal effect rating, CYPSE",[6]; [14],0.0
same,"herbicidal effect rating, CYPSE",[6]; [15],0.0
same,"herbicidal effect rating, CYPSE",[6]; [16],3.0
